Data set [1] relates to ERG potassium channels (hERG1). Conditions: ref [22],[46]; cited from earlier work. The text has this: Scorpion venom is a mixture of proteins, peptides and enzymes, carbohydrates, free amines, nucleotides, lipids, and other low molecular weight components with unknown function. Peptides that act as ion channel modulators are the main agents responsible for the venom toxicity and they have been classified according to their targets into: sodium scorpion toxins (NaScTx), with molecular masses between 6–8 kDa, potassium scorpion toxins (KScTx), with molecular masses between 3–5 kDa, and calcium scorpion toxins (CaScTx) that comprise peptides acting on voltage gated calcium channel ... || The effect of the CmERG1 toxin was evaluated on the hERG1 channel by means of electrophysiology experiments. […] Dose response curves were calculated by application of toxin concentrations from 1 nM to 1 µM. […] This feature is different from the other γKTxs, like CnERG1, ... || Two models were proposed to explain the uncommon feature of the γKTxs that comprises a partial current block, despite the saturation concentration, and the acceleration of the closing process due to the toxin preference for the channel closed state. In one kinetic model proposed by Hill and collaborators, first the toxin binds to the channel in a toxin channel encounter complex permissive to ion flow (TC*) and then passes to the blocked toxin-channel complex (TC). […]

In data set [2] the target is T1, hERG1 channel (Homo sapiens, UniProt Q12809).
T1 construct: expressed in transfected cells
T1 sequence (Q12809 whole entry): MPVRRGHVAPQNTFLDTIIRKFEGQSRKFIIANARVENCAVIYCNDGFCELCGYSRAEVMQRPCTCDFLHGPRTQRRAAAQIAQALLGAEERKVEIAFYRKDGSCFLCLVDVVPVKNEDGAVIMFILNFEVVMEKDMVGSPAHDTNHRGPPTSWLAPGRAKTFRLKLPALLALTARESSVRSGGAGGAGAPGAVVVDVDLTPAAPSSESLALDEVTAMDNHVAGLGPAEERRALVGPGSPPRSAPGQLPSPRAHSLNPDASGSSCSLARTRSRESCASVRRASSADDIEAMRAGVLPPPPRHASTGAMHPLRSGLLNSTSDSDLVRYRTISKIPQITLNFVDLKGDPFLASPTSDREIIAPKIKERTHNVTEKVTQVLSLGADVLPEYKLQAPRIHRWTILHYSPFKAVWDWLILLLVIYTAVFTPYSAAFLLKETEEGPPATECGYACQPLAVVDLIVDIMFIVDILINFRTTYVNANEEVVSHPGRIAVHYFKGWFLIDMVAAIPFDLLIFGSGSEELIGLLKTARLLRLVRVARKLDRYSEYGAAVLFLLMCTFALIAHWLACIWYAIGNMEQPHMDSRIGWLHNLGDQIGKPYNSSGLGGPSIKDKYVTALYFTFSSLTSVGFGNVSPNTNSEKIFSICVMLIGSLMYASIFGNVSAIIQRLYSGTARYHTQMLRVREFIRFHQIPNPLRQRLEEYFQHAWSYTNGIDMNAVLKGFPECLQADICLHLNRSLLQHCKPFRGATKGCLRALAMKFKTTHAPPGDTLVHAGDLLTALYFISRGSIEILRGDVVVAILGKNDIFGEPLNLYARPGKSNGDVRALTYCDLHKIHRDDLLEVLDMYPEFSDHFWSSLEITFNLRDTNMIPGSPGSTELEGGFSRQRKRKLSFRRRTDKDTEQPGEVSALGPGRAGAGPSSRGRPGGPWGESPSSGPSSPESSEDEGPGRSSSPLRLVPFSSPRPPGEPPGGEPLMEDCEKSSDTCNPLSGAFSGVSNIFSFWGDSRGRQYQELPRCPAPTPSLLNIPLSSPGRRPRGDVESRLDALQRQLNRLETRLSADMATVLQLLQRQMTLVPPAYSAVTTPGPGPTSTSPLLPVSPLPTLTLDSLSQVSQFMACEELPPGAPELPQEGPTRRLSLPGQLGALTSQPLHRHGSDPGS
As to the kind of experiment: Patch-clamp, voltage dependence of activation of hERG1. The data set is classed as cell-based. The settings on record: 4 nM. Here is the method:
To understand better the activity of CmERG1 on hERG1, we analyzed the voltage dependence of the activation and inactivation processes in presence or absence of CmERG1 at 4 nM, a concentration close to the IC50. For the activation, tail currents were elicited at −120 mV after 5 s preconditioning pulses from 30 to −80 mV (Figure 4A). Figure 4B,C illustrates typical currents recorded in the absence and in the presence of CmERG1. Tail currents were normalized, plotted versus preconditioning potentials, and fitted to a Boltzmann equation (Figure 4D). […]
Figure 4 Effect of CmERG1 at 4 nM on the voltage dependence of activation and inactivation. […] (B,C) typical example of tail currents recorded in control conditions and during application of CmERG1, respectively. […] Black lines are the best fit obtained to a Boltzmann equation giving V1/2 for activation of −37.5 ± 1.4 mV and −34.8 ± 0.8 mV and slope of 6.0 ± 0.3 and 8 ± 0.7 for the control and in the presence of 4 nM CmERG1, respectively (mean ± SE and n = 5, analyzed by paired sample t-test at 0.05 level). […] Currents recorded at potentials lower than −90 mV were corrected for deactivation as shown in the inset of panel (F). […] (F,G) typical example of currents recorded in control conditions and in presence of 4 nM CmERG1 respectively. […]

The target of data set [3] is T1, hERG1 channel. As to the kind of experiment: Patch-clamp electrophysiology, block of hERG1 tail currents (dose-response) in CHO cells stably expressing hERG1. The data set is classed as cell-based. The settings on record: for activity on hERG1 channels, in words (venom fraction screening / purified peptide): electrophysiology screening. The protocol: CHO cells stably expressing hERG1 potassium channels were used for the electrophysiological experiments (hERG1 accession number: NP_000229). We previously prepared this cell line stably transfecting CHO cells with plasmid pcDNA3.1-hERG1 (a kind gift from Enzo Wanke from University of Milano-Bicocca, Italy). Briefly: CHO cells at 80% confluence in a 35 mm culture plate were transfected with 2 µg of pcDNA3.1-hERG1 mixed with 7 uL of Lipofectamine (Invitrogen), accordingly to the manufacturer instructions. After 3 days, cells were selected by adding to the culture medium 2 mg/mL of G418 (SIGMA). After 10 days of selection, cells were cloned by limiting dilution and the resulting clones were probed for their current expression by electrophysiological recordings. High glucose DMEM (Dulbecco’s Modified Eagle Medium, SIGMA, Naucalpan de Juarez, Edo de Mexico, Mexico), supplemented with 10% Fetal Bovine Serum (Biotecfron, Emiliano Zapata, Morelos, Mexico) and with 500 µg/mL of antibiotic G418 (SIGMA) was used as growth medium. Cells were routinely maintained at 37 °C with 5% of CO2 in humidified atmosphere.
Intracellular solution contained in mM: 130 K-Aspartate, 10 NaCl, 2 MgCl2, 10 HEPES, 10 EGTA, pH 7.3 adjusted with NaOH. Extracellular solution contained in mM: 95 NaCl, 40 KCl, 2 CaCl2, 2 MgCl2, 10 HEPES, 5 glucose, pH 7.3 adjusted with NaOH. A concentrated 100–1000× stock was prepared dissolving lyophilized toxin in distilled water and stored at −20 °C until the used (no more than 3 weeks). Solutions were delivered to the cell under patch by means of an active perfusion system connected to a variable speed syringe pump (model A-99 from Razel Scientific Instruments (Saint Albans VT, USA)). The perfusion rate was approximately 1µL/s.
Patch pipettes were manufactured from capillary borosilicate glass tubing (Warner Instruments, Hamden, CT, USA) by means of a vertical puller model P-30 (Sutter Instrument, Novato, CA, USA). When pipettes were filled with internal solution, pipette resistance was between 1.5–3 MOhm.
During the depolarizing steps, hERG1 currents are usually small (Figure S1). This is a consequence of the slow activation kinetics (in seconds) and the very fast inactivation kinetics (in milliseconds) of this channel that can be considered an inward rectifier. Therefore, it is a common practice to record the tail currents during the hyperpolarization, where the inactivation is quickly removed and the deactivation occurs slowly. For the dose response curve (Figure 3), tail currents of hERG1 were recorded at −120 mV for 500 ms, after a preconditioning pulse at 60 mV for 500 ms every 5 s. Peak currents recorded in absence and in presence of the toxin were normalized to the maximal peak current in control condition and plotted versus the logarithm of toxin concentration. Data were fitted by a logistic equation. For the voltage dependence of activation study, hERG1 tail currents were recorded during a step at −120 mV for 500 ms, preceded by a 5 s depolarization steps in the range between 30 to −80 mV. To determine the voltage dependence of inactivation, currents were recorded after a depolarization at 40 mV for 1 s, during depolarization steps in the range between 40 to −170 mV. Currents recorded at potentials lower than −90 mV were corrected for deactivation: the deactivation process was fitted by a single exponential extrapolated to the zero point of each step. Data from both activation and inactivation protocols, in absence and in presence of the toxin, were normalized, plotted versus membrane potential, and fitted by a Boltzmann function.
Currents were acquired by using MultiClamp 700A amplifier and DigiData 1440a (Molecular Devices, San Jose, CA, USA). Off-line analysis and graphs were performed by using Clampfit 10 (Molecular Devices) and Origin 8 (OriginLab, Northampton MA, USA).
Where it is not otherwise indicated, electrophysiological data represent the mean of 3–6 cells ± standard error (S.E.). […]
(In general: Patch clamp records ionic current or voltage across a cell membrane.)

Data set [4] concerns the target T1, hERG1 channel. Put plainly: Patch-clamp, voltage dependence of (steady state) inactivation of hERG1. It is filed as cell-based. The settings on record: 4 nM, n = 5. The protocol:
Figure 4 Effect of CmERG1 at 4 nM on the voltage dependence of activation and inactivation. (A) Stimulation protocol used to study the voltage dependence of activation. Tail currents were elicited by 5 s preconditioning steps ranging from +30 to −80 mV, followed by a 500 ms pulse at −120 mV. (B,C) typical example of tail currents recorded in control conditions and during application of CmERG1, respectively. (D) Voltage dependence of activation. Normalized peak currents are plotted against the voltage of the preconditioning pulses in control conditions (black squares) and in the presence of 4 nM CmERG1 (grey squares). Black lines are the best fit obtained to a Boltzmann equation giving V1/2 for activation of −37.5 ± 1.4 mV and −34.8 ± 0.8 mV and slope of 6.0 ± 0.3 and 8 ± 0.7 for the control and in the presence of 4 nM CmERG1, respectively (mean ± SE and n = 5, analyzed by paired sample t-test at 0.05 level). (E) Stimulation used to study the voltage dependence of inactivation. Currents were elicited by a 1 s preconditioning pulse at 40 mV followed by depolarization steps ranging from −170 mV to 40 mV. Currents recorded at potentials lower than −90 mV were corrected for deactivation as shown in the inset of panel (F). The deactivation process was fitted by a single exponential (grey dash line) extrapolated to the zero point of the depolarization step, indicated by the arrow. (F,G) typical example of currents recorded in control conditions and in presence of 4 nM CmERG1 respectively. (H) Voltage dependence of inactivation. […] Black lines are the best fit obtained by a Boltzmann equation giving V1/2 for inactivation of −77.6 ± 3.6 mV and −79 ± 1.3 mV and slope of 28.2 ± 2.2 and 29 ± 1.5 for control conditions and in presence of 4 nM CmERG1, respectively (mean ± SE and n = 5, analyzed by paired sample t-test at 0.05 level).
For steady state inactivation, tail currents were recorded during 500 ms depolarization steps from −170 to 40 mV, after a depolarization at 40 mV for 1 s (Figure 4E). Figure 4F,G show an example of currents recorded in the absence and in the presence of toxin. […]

Another data set deals with Kv1.2 channel. Conditions: affinity compared with Kv1.3; ref [31] (ref [30],[31]); cited from earlier work. An excerpt:
(§1) Until now, little is known about the C. margaritatus venom composition. […] Thereafter, in a proteomics study of C. margaritatus venom, two other peptides were isolated and characterized: a peptide with 24 amino acids and 3 disulfide bridges (MW = 2609.15 Da) and a peptide with 30 amino acids and 3 disulfide bridges (MW = 3376 Da), both cla ... || Despite the fact that the C. margaritatus scorpion belongs to the Buthidae […], its venom has been considered of low toxicity, but as mentioned above, in Colombia this species has caused a few cases of moderate and severe scorpionism.

A further data set has as its system Kv1.1 channel. The settings on record: affinity compared with Kv1.3; ref [31] (ref [30],[31]); cited from earlier work.
Source text: as §1

The next data set concerns Kv1.3 channel. Conditions: human peripheral T lymphocytes, ref [30] (ref [30],[31]), cited from earlier work.
Source text: as §1

Entries after “also recorded” stand apart in the source; their conditions may differ. Where two headings read alike, the source gives them in different places. Positions of bridges follow the written chain, without caps; N, C: chain ends. No end group written: not given here.

Turning to BeKm-1, in data set [1], the “state dependence of channel-toxin interaction” value is listed as “toxin binds preferentially to the closed channels while inactivation promotes toxin unbinding”.

A word on the IC50: it is the concentration that gives 50% inhibition. Regarding “DRDSCVDKSRCAKYGYFQECTDCCKKYGHNGGTCMFFKCKCA (disulfide 5-23, 11-34, 20-39, 24-41) [CmERG1]”, at hERG1 channel [2] (Boltzmann fit, control −37.5 ± 1.4 mV, mean ± SE, n = 4 or n = 5, paired t-test), the “V1/2 for activation (potential of half activation) in presence of toxin” value was -34.8 ± 0.8 mV. In addition, the “effect on total current / voltage dependence of activation, in words” value on hERG1 channel [2] (n = 4, paired sample t-test at 0.05 level) is “reduces the total current with a tendency to modify the potential of half activation”. In addition, the “slope of dose-response curve (logistic equation)” value on hERG1 channel [3] (CHO cells stably expressing hERG1, 1 nM to 1 µM, tail currents at −120 mV) turned out to be 1.1 ± 0.05. Moreover, at hERG1 channel [3] (CHO cells stably expressing hERG1, tail currents at −120 mV after preconditioning at 60 mV for 500 ms every 5 s, 1 nM to 1 µM, logistic fit, mean ± S.E., n = 3-6 cells per concentration, read-out: IC50, inhibition of hERG1 currents), the IC50 worked out at 3.4 ± 0.2 nM. For the same substance, the “onset and reversibility of block” value on hERG1 channel [3] (CHO-hERG1 patch clamp, application at 1 µM and washout, pulses every 5 s) was “blocks channels in a fast and reversible manner”. Moreover, the “block of hERG1 current, in words” value on hERG1 channel [3] (CHO-hERG1 patch clamp, highest concentration 1 µM (n = 3)) is reported as “completely blocks hERG1 current; also recorded: able to almost completely block the channels; also recorded: full blocking”. The “block of hERG1 current” value on hERG1 channel [3] (CHO-hERG1 patch clamp, maximal block) amounted to 100%. For the same substance, on hERG1 channel [3] (CHO-hERG1 patch clamp, representative currents at 300 nM and 3 nM), the “effect on kinetics of the closing (deactivation) process” value is on record as “does not accelerate the kinetics of the closing process; also recorded: absence of deactivation process acceleration”. At hERG1 channel [3] (CmERG1 versus CnERG1), the “difference in efficiency at a total block of current between CmERG1 and CnERG1” value came out at 10%. In addition, the “activity on hERG1 channels, in words (venom fraction screening / purified peptide)” value is “active on hERG1” on hERG1 channel [3] and “confirmed the activity of this peptide against hERG1” on hERG1 channel [3] (listed as peptide corresponding to 4792.88 Da). For the same substance, the “slope of voltage dependence of inactivation in presence of toxin” value on hERG1 channel [4] (Boltzmann fit, control 28.2 ± 2.2, mean ± SE) was found to be 29 ± 1.5. On hERG1 channel [4] (Boltzmann fit, control −77.6 ± 3.6 mV, mean ± SE), the “V1/2 for inactivation in presence of toxin” value is recorded as −79 ± 1.3 mV. Further, the “effect on voltage dependence of steady state inactivation, in words” value on hERG1 channel [4] (paired sample t-test at 0.05 level) is given as “does not induce significant changes on the voltage dependence of inactivation; also recorded: no modification of the steady state inactivation”.

Regarding Margatoxin, the “inhibition of Kv1.2, in words” value with Kv1.2 channel is “block also Kv1.1 and Kv 1.2”. Moreover, the “inhibition of Kv1.1, in words” value in the data set with Kv1.1 channel is “block also Kv1.1”. Besides, the “inhibition of Kv1.3, in words” value in the data set on Kv1.3 channel is “potent and specific blocker”; in the data set with Kv1.3 channel (listed as Margatoxin 1) it was “potent inhibitor”.
